For the assay, the target named is T1, MST1 (Homo sapiens, UniProt Q13043).
T1 sequence (Q13043 1-487): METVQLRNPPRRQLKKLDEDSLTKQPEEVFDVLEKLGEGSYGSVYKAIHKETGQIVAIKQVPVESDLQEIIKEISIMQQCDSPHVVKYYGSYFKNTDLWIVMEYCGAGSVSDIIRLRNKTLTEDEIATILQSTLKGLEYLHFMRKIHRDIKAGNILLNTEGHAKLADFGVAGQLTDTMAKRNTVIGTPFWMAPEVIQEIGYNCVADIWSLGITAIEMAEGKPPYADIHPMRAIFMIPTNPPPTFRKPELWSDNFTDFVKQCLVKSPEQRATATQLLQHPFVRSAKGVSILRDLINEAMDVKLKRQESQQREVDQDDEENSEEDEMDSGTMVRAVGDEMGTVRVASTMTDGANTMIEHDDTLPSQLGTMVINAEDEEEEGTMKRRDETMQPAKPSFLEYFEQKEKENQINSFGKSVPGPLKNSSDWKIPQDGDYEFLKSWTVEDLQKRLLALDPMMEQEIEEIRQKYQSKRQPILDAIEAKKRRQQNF
Briefly: In vitro measurement of MST1 inhibition (Z′-Lyte kinase assay). Type of assay: biochemical.

[1] abbreviates: 1 μM ATP, read-out: IC50 (μM) 1 μM ATP.
[2] abbreviates: 50 μM ATP, read-out: IC50 (μM) 50 μM ATP.

Like-named read-outs stand apart in the source and are kept apart here.

As a reminder, the IC50 is the concentration that inhibits the measured activity by half. In the case of `Cc1cc(-c2cnc(N)c(-c3ccc4c(c3)CCNC4=O)c2)ccc1S(=O)(=O)N(C)C1CC1` [4-(6-amino-5-(1-oxo-1,2,3,4-tetrahydroisoquinolin-6-yl)pyridin-3-yl)-N-cyclopropyl-N,2-dimethylbenzenesulfonamide], the IC50 by setting is: under setting [1], less than 0.01 µM; under setting [2], less than 0.01 µM. Take `Nc1ncc(-c2ccc(S(=O)(=O)NC3CC3)cc2)cc1-c1ccc2c(c1)CCNC2=O` [4-(6-amino-5-(1-oxo-1,2,3,4-tetrahydroisoquinolin-6-yl)pyridin-3-yl)-N-cyclopropylbenzenesulfonamide]: the IC50 under setting [1] was less than 0.01 µM and the IC50 under setting [2] is less than 0.01 µM.

As for `CCN(C)S(=O)(=O)c1ccc(-c2cnc(N)c(-c3ccc4c(c3)CCNC4=O)c2)cc1` [4-(6-amino-5-(1-oxo-1,2,3,4-tetrahydroisoquinolin-6-yl)pyridin-3-yl)-N-ethyl-N-methylbenzenesulfonamide], the IC50 by setting is: under setting [1], less than 0.01 µM; under setting [2], less than 0.01 µM. As to `CN(C1CC1)S(=O)(=O)c1ccc(-c2cnc(N)c(-c3ccc4c(=O)[nH]ccc4c3)c2)cc1` [4-(6-amino-5-(1-oxo-1,2-dihydroisoquinolin-6-yl)pyridin-3-yl)-N-cyclopropyl-N-methylbenzenesulfonamide], the IC50 reads like this: under setting [1], less than 0.01 µM; under setting [2], less than 0.01 µM. For `CN(C1CC1)S(=O)(=O)c1ccc(-c2cnc(N)c(-c3ccc4c(c3)CCCNC4=O)c2)cc1` [4-(6-amino-5-(1-oxo-2,3,4,5-tetrahydro-1H-benzo[c]azepin-7-yl)pyridin-3-yl)-N-cyclopropyl-N-methylbenzenesulfonamide], the 50% inhibitory concentration (IC50) under setting [1] was less than 0.01 µM and the IC50 under setting [2] is less than 0.01 µM. As to `Nc1ncc(-c2ccc(S(=O)(=O)NC3CC3)cc2)cc1-c1ccc2c(c1)CCCNC2=O` [4-(6-amino-5-(1-oxo-2,3,4,5-tetrahydro-1H-benzo[c]azepin-7-yl)pyridin-3-yl)-N-cyclopropylbenzenesulfonamide], the half-maximal inhibitory concentration (IC50) is less than 0.01 µM under setting [1] and less than 0.01 µM under setting [2]. Consider `CN(C1CC1)S(=O)(=O)c1ccc(-c2cnc(N)c(-c3ccc4c(c3)C3(CC3)CNC4=O)c2)cc1` [4-(6-amino-5-(1′-oxo-2′,3′-dihydro-1′H-spiro[cyclopropane-1,4′-isoquinolin]-6′-yl)pyridin-3-yl)-N-cyclopropyl-N-methylbenzenesulfonamide], for which the IC50 was less than 0.01 µM under setting [1] and less than 0.01 µM under setting [2]. Turning to `Nc1ncc(-c2ccc(S(=O)(=O)NC3CC3)cc2)cc1-c1ccc2c(c1)C1(CC1)CNC2=O` [4-(6-amino-5-(1′-oxo-2′,3′-dihydro-1′H-spiro[cyclopropane-1,4′-isoquinolin]-6′-yl)pyridin-3-yl)-N-cyclopropylbenzenesulfonamide], the IC50 reads like this: under setting [1], less than 0.01 µM; under setting [2], less than 0.01 µM.

On to `CN(C1CC1)S(=O)(=O)c1ccc(-c2cnc(N)c(-c3ccc4c(c3)CCN(CCC#N)C4=O)c2)cc1` [4-(6-amino-5-(2-(2-cyanoethyl)-1-oxo-1,2,3,4-tetrahydroisoquinolin-6-yl)pyridin-3-yl)-N-cyclopropyl-N-methylbenzenesulfonamide], for which the IC50 runs as follows: under setting [1], less than 0.15 µM; under setting [2], less than 0.05 µM. For `CN(C1CC1)S(=O)(=O)c1ccc(-c2cnc(N)c(-c3ccc4c(c3)CCCCC(=O)N4)c2)cc1` [4-(6-amino-5-(2-oxo-1,2,3,4,5,6-hexahydrobenzo[b]azocin-8-yl)pyridin-3-yl)-N-cyclopropyl-N-methylbenzenesulfonamide] the same measures were less than 0.15 µM and less than 0.05 µM. For the compound `CCN(CC)S(=O)(=O)c1ccc(-c2cnc(N)c(-c3ccc4c(c3)CCCC(=O)N4)c2)cc1` [4-(6-amino-5-(2-oxo-2,3,4,5-tetrahydro-1H-benzo[b]azepin-7-yl)pyridin-3-yl)-N,N-diethylbenzenesulfonamide], under setting [2], the IC50 was less than 0.15 µM.

Regarding `CN(C1CC1)S(=O)(=O)c1ccc(-c2cnc(N)c(-c3ccc4c(c3)C(C)(C)NC4=O)c2)cc1` [4-(6-amino-5-(3,3-dimethyl-1-oxoisoindolin-5-yl)pyridin-3-yl)-N-cyclopropyl-N-methylbenzenesulfonamide], the IC50 is less than 0.01 µM under setting [1] and less than 0.01 µM under setting [2]. Take `CCN(CC)S(=O)(=O)c1ccc(-c2cnc(N)c(-c3ccc4c(O)n[nH]c4c3)c2)cc1` [4-(6-amino-5-(3-hydroxy-1H-indazol-6-yl)pyridin-3-yl)-N,N-diethylbenzenesulfonamide]: under setting [2], the IC50 was less than 0.15 µM. As for `CCN(CC)S(=O)(=O)c1ccc(-c2cnc(N)c(-c3ccc4c(=O)[nH]oc4c3)c2)cc1` [4-(6-amino-5-(3-oxo-2,3-dihydrobenzo[d]isoxazol-6-yl)pyridin-3-yl)-N,N-diethylbenzenesulfonamide], the IC50 under setting [2] was less than 0.15 µM.

For the compound `CN(C1CC1)S(=O)(=O)c1ccc(-c2cnc(N)c(-c3ccc4c(c3)C3(CC3)NC4=O)c2)cc1` [4-(6-amino-5-(3′-oxospiro[cyclopropane-1,1′-isoindolin]-6′-yl)pyridin-3-yl)-N-cyclopropyl-N-methylbenzenesulfonamide], the IC50 is, setting by setting: under setting [1], less than 0.01 µM; under setting [2], less than 0.01 µM. Take `Nc1ncc(-c2ccc(S(=O)(=O)NC3CC3)cc2)cc1-c1ccc2c(c1)C1(CC1)NC2=O` [4-(6-amino-5-(3′-oxospiro[cyclopropane-1,1′-isoindolin]-6′-yl)pyridin-3-yl)-N-cyclopropylbenzenesulfonamide]: the IC50 is, setting by setting: under setting [1], less than 0.01 µM; under setting [2], less than 0.01 µM.

Take `CC1(C)CNC(=O)c2ccc(-c3cc(-c4ccc(S(=O)(=O)NC5CC5)cc4)cnc3N)cc21` [4-(6-amino-5-(4,4-dimethyl-1-oxo-1,2,3,4-tetrahydroisoquinolin-6-yl)pyridin-3-yl)-N-cyclopropylbenzenesulfonamide]: the half-inhibitory concentration (IC50) is, setting by setting: under setting [1], less than 0.01 µM; under setting [2], less than 0.01 µM. With `CCN(CC)S(=O)(=O)c1ccc(-c2cnc(N)c(-c3ccc4c(O)ncnc4c3)c2)cc1` [4-(6-amino-5-(4-hydroxyquinazolin-7-yl)pyridin-3-yl)-N,N-diethylbenzenesulfonamide], the IC50 reads like this: under setting [1], less than 0.05 µM; under setting [2], less than 0.01 µM. For `CCNS(=O)(=O)c1ccc(-c2cnc(N)c(-c3ccc4c(O)ncnc4c3)c2)cc1` [4-(6-amino-5-(4-hydroxyquinazolin-7-yl)pyridin-3-yl)-N-ethylbenzenesulfonamide] the same measures were less than 0.05 µM and less than 0.01 µM.

As for `CN(C1CC1)S(=O)(=O)c1ccc(-c2cnc(N)c(-c3ccc4c(c3)NCCNC4=O)c2)cc1` [4-(6-amino-5-(5-oxo-2,3,4,5-tetrahydro-1H-benzo[e][1,4]diazepin-8-yl)pyridin-3-yl)-N-cyclopropyl-N-methylbenzenesulfonamide], the IC50 reads like this: under setting [1], less than 0.01 µM; under setting [2], less than 0.01 µM. Regarding `CN(C1CC1)S(=O)(=O)c1ccc(-c2cnc(N)c(-c3ccc4c(c3)OCCNC4=O)c2)cc1` [4-(6-amino-5-(5-oxo-2,3,4,5-tetrahydrobenzo[f][1,4]oxazepin-8-yl)pyridin-3-yl)-N-cyclopropyl-N-methylbenzenesulfonamide], the IC50 by setting is: under setting [1], less than 0.01 µM; under setting [2], less than 0.01 µM. In the case of `Nc1ncc(-c2ccc(S(=O)(=O)NC3CC3)cc2)cc1-c1ccc2c(c1)OCCNC2=O` [4-(6-amino-5-(5-oxo-2,3,4,5-tetrahydrobenzo[f][1,4]oxazepin-8-yl)pyridin-3-yl)-N-cyclopropylbenzenesulfonamide], the IC50 under setting [1] was less than 0.01 µM and the half-inhibitory concentration (IC50) under setting [2] was less than 0.01 µM.

Turning to `CCN(C)S(=O)(=O)c1ccc(-c2cnc(N)c(-c3cc4c(s3)C(=O)NCC4)c2)cc1` [4-(6-amino-5-(7-oxo-4,5,6,7-tetrahydrothieno[2,3-c]pyridin-2-yl)pyridin-3-yl)-N-ethyl-N-methylbenzenesulfonamide], the IC50 runs as follows: under setting [1], less than 0.05 µM; under setting [2], less than 0.01 µM. With `CN(C1CC1)S(=O)(=O)c1ccc(-c2cnc(N)c(-c3cc4c(cn3)C(=O)NCC4)c2)cc1` [4-(6-amino-5-(8-oxo-5,6,7,8-tetrahydro-2,7-naphthyridin-3-yl)pyridin-3-yl)-N-cyclopropyl-N-methylbenzenesulfonamide], the IC50 is, setting by setting: under setting [1], less than 0.01 µM; under setting [2], less than 0.01 µM.

Take `N#Cc1ccc(-c2cnc(N)c(-c3cc4c(cn3)C(=O)NCC4)c2)cc1` [4-(6-amino-5-(8-oxo-5,6,7,8-tetrahydro-2,7-naphthyridin-3-yl)pyridin-3-yl)benzonitrile]: the IC50 was less than 0.05 µM under setting [1] and less than 0.01 µM under setting [2]. For `CNC(=O)N1CCc2cc(-c3nc(-c4ccc(S(=O)(=O)N(C)C5CC5)cc4)cnc3N)ccc21` [5-(3-amino-6-(4-(N-cyclopropyl-N-methylsulfamoyl)phenyl)pyrazin-2-yl)-N-methylindoline-1-carboxamide], in that order: less than 0.05 µM and less than 0.01 µM. For `CC1(C#N)CCc2cc(-c3cnc(N)c(-c4ccc5c(c4)CCNC5=O)n3)ccc21` (centres unmarked) [5-(5-amino-6-(1-oxo-1,2,3,4-tetrahydroisoquinolin-6-yl)pyrazin-2-yl)-1-methyl-2,3-dihydro-1H-indene-1-carbonitrile], in that order: less than 0.05 µM and less than 0.01 µM. For `CN(C1CC1)S(=O)(=O)c1ccc(-c2cnc(N)c(-c3ccc4c(c3)CCNC4=O)n2)cn1` [5-(5-amino-6-(1-oxo-1,2,3,4-tetrahydroisoquinolin-6-yl)pyrazin-2-yl)-N-cyclopropyl-N-methylpyridine-2-sulfonamide] the same measures were less than 0.05 µM and less than 0.01 µM.

The values above are taken from US8440652B2, “MST1 kinase inhibitors and methods of their use” (Lexicon Pharmaceuticals, Inc., priority 2011, dated 2013).
